Experimental data: paper PMC8371902, “Phase 1 study of M2698, a p70S6K/AKT dual inhibitor, in patients with advanced cancer” (Journal of Hematology & Oncology, 2021)
Where two headings read alike, the source gives them in different places.

System: patients with advanced metastatic cancer
Excerpt: In this phase 1 study, dose escalation was followed by expansion cohorts of once-daily, oral M2698 in continuous 21-day cycles. Primary objectives were to determine the maximum tolerated dose (MTD), dose-limiting toxicities (DLTs), and recommended phase 2 dose (RP2D). Secondary objectives were to assess safety and tolerability, pharmacokinetics (PK, including food effect) and antitumor activity. Pharmacodynamic biomarker assessments were exploratory. Treatment was discontinued if there was disease progression, toxicity or consent withdrawal.
In Part 1, M2698 monotherapy was investigated in a dose escalation with a food effect cohort. In Part 2, M2698 was investigated as monotherapy (expansion cohort) to further characterize safety, tolerability and pharmacokinetics, and assess antitumor activity in PAM + patients without confounding markers (exploratory).
Dose escalation analysis included all patients who experienced a DLT and those who received ≥ 80% of planned M2698 doses in cycle 1 without experiencing a DLT. Safety analysis included all patients who received ≥ 1 dose of M2698. PK analysis included all patients who received ≥ 1 dose of M2698 and had measurable plasma concentrations. Dose proportionality was tested using the power model (linear regression approach on the log -transformed scale).

SMILES: NC(=O)c1cccc2c(N[C@H](CN3CCC3)c3ccc(Cl)c(C(F)(F)F)c3)ncnc12 [M2698]
- M2698-related TEAE: Delusion (200 mg n=3): 0
- M2698-related TEAE: Depression (200 mg n=3): 0
- M2698-related TEAE: Diarrhoea (200 mg n=3): 0
- M2698-related TEAE: Diarrhoea haemorrhagic (200 mg n=3): 0
- M2698-related TEAE: Dizziness (200 mg n=3): 0
- M2698-related TEAE: Dry eye (200 mg n=3): 0
- M2698-related TEAE: Dry mouth (200 mg n=3): 0
- M2698-related TEAE: Dysgeusia (200 mg n=3): 0
- M2698-related TEAE: Dyspepsia (200 mg n=3): 0
- M2698-related TEAE: Dysphagia (200 mg n=3): 0
- M2698-related TEAE: Energy increased (200 mg n=3): 0
- M2698-related TEAE: Erythema (200 mg n=3): 0
- M2698-related TEAE: Euphoric mood (200 mg n=3): 0
- M2698-related TEAE: Eye disorders (200 mg n=3): 0
- M2698-related TEAE: Fatigue (200 mg n=3): 0
- M2698-related TEAE: Gamma-glutamyltransferase increased (200 mg n=3): 0
- M2698-related TEAE: Gastrointestinal disorders (200 mg n=3): 1
- M2698-related TEAE: Gastrooesophageal reflux disease (200 mg n=3): 0
- M2698-related TEAE: General disorders and administration site conditions (200 mg n=3): 0
- M2698-related TEAE: Headache (200 mg n=3): 0
- M2698-related TEAE: Hyperhidrosis (200 mg n=3): 0
- M2698-related TEAE: Hypokalaemia (200 mg n=3): 0
- M2698-related TEAE: Hypomagnesaemia (200 mg n=3): 0
- M2698-related TEAE: Insomnia (200 mg n=3): 0
- M2698-related TEAE: Investigations (200 mg n=3): 0
- M2698-related TEAE: Lipase increased (200 mg n=3): 0
- M2698-related TEAE: Lymphopenia (200 mg n=3): 0
- M2698-related TEAE: Metabolism and nutrition disorders (200 mg n=3): 1
- M2698-related TEAE: Mucosal inflammation (200 mg n=3): 0
- M2698-related TEAE: Nausea (200 mg n=3): 1
- M2698-related TEAE: Nervous system disorders (200 mg n=3): 0
- M2698-related TEAE: Nightmare (200 mg n=3): 0
- M2698-related TEAE: Onychomadesis (200 mg n=3): 0
- M2698-related TEAE: Paranoia (200 mg n=3): 0
- M2698-related TEAE: Photosensitivity reaction (200 mg n=3): 0
- M2698-related TEAE: Posterior reversible encephalopathy syndrome (200 mg n=3): 0
- M2698-related TEAE: Pruritus generalised (200 mg n=3): 0
- M2698-related TEAE: Psychiatric disorders (200 mg n=3): 0
- M2698-related TEAE: Rash (200 mg n=3): 0
- M2698-related TEAE: Rash maculo-papular (200 mg n=3): 0
- M2698-related TEAE: Skin and subcutaneous tissue disorders (200 mg n=3): 0
- M2698-related TEAE: Subjects with at least one event (200 mg n=3): 1
- M2698-related TEAE: Transaminases increased (200 mg n=3): 0
- M2698-related TEAE: Tremor (200 mg n=3): 0
- M2698-related TEAE: Vision blurred (200 mg n=3): 0
- M2698-related TEAE: Vomiting (200 mg n=3): 0
- M2698-related TEAE: White blood cell count decreased (200 mg n=3): 0
- M2698-related TEAE: Abnormal dreams (240 mg n=17): 2
- M2698-related TEAE: Affect lability (240 mg n=17): 0
- M2698-related TEAE: Alanine aminotransferase increased (240 mg n=17): 0
- M2698-related TEAE: Amylase increased (240 mg n=17): 0
- M2698-related TEAE: Anaemia (240 mg n=17): 0
- M2698-related TEAE: Angina pectoris (240 mg n=17): 0
- M2698-related TEAE: Anxiety (240 mg n=17): 0
- M2698-related TEAE: Aphasia (240 mg n=17): 0
- M2698-related TEAE: Ataxia (240 mg n=17): 0
- M2698-related TEAE: Blood and lymphatic system disorders (240 mg n=17): 0
- M2698-related TEAE: Blood creatine phosphokinase increased (240 mg n=17): 0
- M2698-related TEAE: Blood creatinine increased (240 mg n=17): 1
- M2698-related TEAE: Cardiac disorders (240 mg n=17): 0
- M2698-related TEAE: Cognitive disorder (240 mg n=17): 1
- M2698-related TEAE: Constipation (240 mg n=17): 0
- M2698-related TEAE: Decreased appetite (240 mg n=17): 0
- M2698-related TEAE: Delusion (240 mg n=17): 0
- M2698-related TEAE: Depression (240 mg n=17): 1
- M2698-related TEAE: Diarrhoea (240 mg n=17): 2
- M2698-related TEAE: Diarrhoea haemorrhagic (240 mg n=17): 0
- M2698-related TEAE: Dizziness (240 mg n=17): 1
- M2698-related TEAE: Dry eye (240 mg n=17): 0
- M2698-related TEAE: Dry mouth (240 mg n=17): 0
- M2698-related TEAE: Dysgeusia (240 mg n=17): 0
- M2698-related TEAE: Dyspepsia (240 mg n=17): 0
- M2698-related TEAE: Dysphagia (240 mg n=17): 0
- M2698-related TEAE: Energy increased (240 mg n=17): 0
- M2698-related TEAE: Erythema (240 mg n=17): 0
- M2698-related TEAE: Euphoric mood (240 mg n=17): 0
- M2698-related TEAE: Eye disorders (240 mg n=17): 0
- M2698-related TEAE: Fatigue (240 mg n=17): 3
- M2698-related TEAE: Gamma-glutamyltransferase increased (240 mg n=17): 0
- M2698-related TEAE: Gastrointestinal disorders (240 mg n=17): 4
- M2698-related TEAE: Gastrooesophageal reflux disease (240 mg n=17): 1
- M2698-related TEAE: General disorders and administration site conditions (240 mg n=17): 3
- M2698-related TEAE: Headache (240 mg n=17): 1
- M2698-related TEAE: Hyperhidrosis (240 mg n=17): 0
- M2698-related TEAE: Hypokalaemia (240 mg n=17): 0
- M2698-related TEAE: Hypomagnesaemia (240 mg n=17): 0
- M2698-related TEAE: Insomnia (240 mg n=17): 0
- M2698-related TEAE: Investigations (240 mg n=17): 1
- M2698-related TEAE: Lipase increased (240 mg n=17): 0
- M2698-related TEAE: Lymphopenia (240 mg n=17): 0
- M2698-related TEAE: Metabolism and nutrition disorders (240 mg n=17): 0
- M2698-related TEAE: Mucosal inflammation (240 mg n=17): 0
- M2698-related TEAE: Nausea (240 mg n=17): 3
- M2698-related TEAE: Nervous system disorders (240 mg n=17): 3
- M2698-related TEAE: Nightmare (240 mg n=17): 0
- M2698-related TEAE: Onychomadesis (240 mg n=17): 0
- M2698-related TEAE: Paranoia (240 mg n=17): 0
- M2698-related TEAE: Photosensitivity reaction (240 mg n=17): 0
- M2698-related TEAE: Posterior reversible encephalopathy syndrome (240 mg n=17): 0
